Test results reported in PubChem BioAssay AID330 (DTP/NCI, 2004).
Several values for one entry are separate records, joined by “and”; a condition that tells them apart may be missing. Identical values can stand only once. Inconclusive results and toxic doses are left out. Square brackets hold non-standard residues; d marks the D form. Peptide text beside a SMILES is read from it. ξ: configuration not given here. ξP = O=C(O)C1CCCN1

System: P388 leukemia ip, CD2F1 mice, survival T/C
Test: NCI In Vivo Anticancer Drug Screen. Data for tumor model P388 Leukemia (intraperitoneal) in CD2F1 (CDF1) mice
Conditions: endpoint: median survival time, higher = longer survival
Summary of the method: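 Mice carrying the transplanted tumor received test compound or vehicle. Survival was recorded in each group, and the value is the treated-group measurement divided by that of the vehicle-treated control group.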

[1] = dose: 50.0 mg/kg/injection, schedule: Q01DX009 (ip), vehicle: saline
[2] = dose: 50.0 mg/kg/injection, schedule: Q01DX005 (ip), vehicle: saline with Tween-80
[3] = dose: 200.0 mg/kg/injection, schedule: Q01DX005 (ip), vehicle: saline with Tween-80
[4] = dose: 25.0 mg/kg/injection, schedule: Q01DX009 (ip), vehicle: saline
[5] = dose: 100.0 mg/kg/injection, schedule: Q01DX009 (ip), vehicle: saline with Tween-80
[6] = dose: 50.0 mg/kg/injection, schedule: Q01DX005 (ip), vehicle: saline
[7] = dose: 100.0 mg/kg/injection, schedule: Q01DX005 (ip), vehicle: saline
[8] = dose: 200.0 mg/kg/injection, schedule: Q01DX005 (ip), vehicle: saline
[9] = dose: 6.25 mg/kg/injection, schedule: Q01DX009 (ip), vehicle: Klucel (hydroxypropylcellulose) (HPC)
[10] = dose: 12.5 mg/kg/injection, schedule: Q01DX009 (ip), vehicle: Klucel (hydroxypropylcellulose) (HPC)

What does the source list for Cc1cccc(C)c1NC(=O)CCC(=O)C(C)C(=O)c1ccc(O)cc1 (stereo not given)?
T/C (dose: 100.0 mg/kg/injection, schedule: Q01DX001 (ip), vehicle: saline with Tween-80): 100 % of control; T/C (dose: 200.0 mg/kg/injection, schedule: Q01DX001 (ip), vehicle: saline with Tween-80): 100 % of control; T/C (dose: 400.0 mg/kg/injection, schedule: Q01DX001 (ip), vehicle: saline with Tween-80): 97 % of control

Which T/C [1] does the source give for COc1ccc(-c2nc(C)[nH]c(=O)c2Cc2c(O)ccc3ccccc23)cc1 here?
The T/C was 102 % of control.

What about the T/C (dose: 100.0 mg/kg/injection, schedule: Q01DX009 (ip), vehicle: saline) of the same molecule?
Its T/C is 100 % of control.

And the T/C (dose: 200.0 mg/kg/injection, schedule: Q01DX009 (ip), vehicle: saline)?
Its T/C is 99 % of control.

Which T/C [2] does the source give for CCOc1ccc(N=Nc2c(-c3ccccc3)nn(C(=S)S)c2-c2ccccc2)cc1 here?
Its T/C is 88 % of control.

What about the T/C (dose: 100.0 mg/kg/injection, schedule: Q01DX005 (ip), vehicle: saline with Tween-80) of the same molecule?
The T/C was 92 % of control.

What about the T/C [3] of the same molecule?
The T/C was 90 % of control.

With Cc1cc(O)c(C(=O)/C=C(\O)c2ccccc2)c(=O)o1 as the molecule, how does the T/C (dose: 10.5 mg/kg/injection, schedule: Q01DX005 (ip), vehicle: Klucel (hydroxypropylcellulose) (HPC)) read?
Its T/C is 100 % of control.

And the T/C (dose: 21.0 mg/kg/injection, schedule: Q01DX005 (ip), vehicle: Klucel (hydroxypropylcellulose) (HPC))?
Its T/C is 102 % of control.

What about the T/C (dose: 42.0 mg/kg/injection, schedule: Q01DX005 (ip), vehicle: Klucel (hydroxypropylcellulose) (HPC)) of the same molecule?
The T/C was 106 % of control.

And the T/C (dose: 84.0 mg/kg/injection, schedule: Q01DX005 (ip), vehicle: Klucel (hydroxypropylcellulose) (HPC))?
The T/C was 86 % of control.

How did the T/C (dose: 15.0 mg/kg/injection, schedule: Q01DX005 (ip), vehicle: Klucel (hydroxypropylcellulose) (HPC)) turn out when O=c1oc2nc(-c3ccccc3)[nH]c(=O)c2c2c1CCCC2 was run?
Its T/C is 92 % of control.

And the T/C (dose: 30.0 mg/kg/injection, schedule: Q01DX005 (ip), vehicle: Klucel (hydroxypropylcellulose) (HPC))?
Its T/C is 86 % of control.

Which results are given for CC(=O)OC1(C)CC(C)C(=O)C(C(O)CC2CC(=O)NC(=O)C2)C1 (stereo not given)?
T/C (dose: 130.0 micrograms/kg/injection, schedule: Q01DX009 (ip), vehicle: saline): 111 % of control; T/C (dose: 1300.0 micrograms/kg/injection, schedule: Q04DX003 (ip), vehicle: saline): 120 % of control; T/C (dose: 2160.0 micrograms/kg/injection, schedule: Q04DX003 (ip), vehicle: saline): 113 % of control; T/C (dose: 3600.0 micrograms/kg/injection, schedule: Q04DX003 (ip), vehicle: saline): 113 % of control and 119 % of control; T/C (dose: 6000.0 micrograms/kg/injection, schedule: Q04DX003 (ip), vehicle: saline): 118 % of control

What does the source list for CCOC(=O)c1cnc(Sc2ncccc2[N+](=O)[O-])nc1N?
T/C (dose: 100.0 mg/kg/injection, schedule: Q04DX003 (ip), vehicle: saline): 95 % of control; T/C (dose: 200.0 mg/kg/injection, schedule: Q04DX003 (ip), vehicle: saline): 98 % of control; T/C (dose: 400.0 mg/kg/injection, schedule: Q04DX003 (ip), vehicle: saline): 92 % of control

Which T/C (dose: 6.25 mg/kg/injection, schedule: Q01DX009 (ip), vehicle: saline with Tween-80) does the source give for Nc1ccc2c(c1)CN1C(=O)c3ccccc3C1=N2 here?
The T/C was 100 % of control.

And the T/C (dose: 12.5 mg/kg/injection, schedule: Q01DX009 (ip), vehicle: saline with Tween-80)?
The T/C was 93 % of control.

And the T/C (dose: 22.2 mg/kg/injection, schedule: Q01DX009 (ip), vehicle: saline with Tween-80)?
Its T/C is 111 % of control.

What about the T/C (dose: 25.0 mg/kg/injection, schedule: Q01DX009 (ip), vehicle: saline with Tween-80) of the same molecule?
Its T/C is 96 % of control.

What about the T/C [4] of the same molecule?
The T/C was 91 % of control.

And the T/C (dose: 30.0 mg/kg/injection, schedule: Q01DX009 (ip), vehicle: saline with Tween-80)?
Its T/C is 104 % of control.

And the T/C (dose: 33.4 mg/kg/injection, schedule: Q01DX009 (oral), vehicle: saline with Tween-80)?
The T/C was 97 % of control.

And the T/C (dose: 40.0 mg/kg/injection, schedule: Q01DX009 (ip), vehicle: saline with Tween-80)?
The T/C was 90 % of control.

And the T/C [1]?
Its T/C is 161 % of control.

And the T/C (dose: 50.0 mg/kg/injection, schedule: Q01DX009 (oral), vehicle: saline with Tween-80)?
Its T/C is 108 % of control.

And the T/C (dose: 60.0 mg/kg/injection, schedule: Q01DX009 (ip), vehicle: saline with Tween-80)?
Its T/C is 119 % of control.

What about the T/C (dose: 75.0 mg/kg/injection, schedule: Q01DX009 (oral), vehicle: saline with Tween-80) of the same molecule?
The T/C was 108 % of control.

And the T/C [5]?
The T/C was 100 % of control and 93 % of control.

What about the T/C (dose: 112.4 mg/kg/injection, schedule: Q01DX009 (ip), vehicle: saline with Tween-80) of the same molecule?
The T/C was 121 % of control.

What about the T/C (dose: 112.4 mg/kg/injection, schedule: Q01DX009 (oral), vehicle: saline with Tween-80) of the same molecule?
Its T/C is 117 % of control.

What about the T/C (dose: 168.5 mg/kg/injection, schedule: Q01DX009 (oral), vehicle: saline with Tween-80) of the same molecule?
Its T/C is 108 % of control.

Which results are given for NCC(=O)N1CCCC1C(=O)NCC(=O)NCC(=O)O (stereo not given) (H-G[ξP]GG-OH)?
T/C [6]: 101 % of control; T/C [7]: 107 % of control; T/C (dose: 100.0 mg/kg/injection, schedule: Q01DX005 (ip), vehicle: water): 105 % of control; T/C [8]: 99 % of control; T/C (dose: 200.0 mg/kg/injection, schedule: Q01DX005 (ip), vehicle: water): 107 % of control; T/C (dose: 400.0 mg/kg/injection, schedule: Q01DX005 (ip), vehicle: water): 110 % of control

Cc1nc2[nH]ncc2c(=O)n1N was tested. Which T/C [6] did it give?
The T/C was 97 % of control.

What about the T/C [7] of the same molecule?
Its T/C is 108 % of control.

What about the T/C [8] of the same molecule?
Its T/C is 101 % of control.

How did the T/C (dose: 50.0 mg/kg/injection, schedule: Q01DX009 (ip), vehicle: saline with Tween-80) turn out when NCc1c(O)ccc2ccccc12 was run?
Its T/C is 105 % of control.

And the T/C [5]?
The T/C was 107 % of control.

And the T/C (dose: 200.0 mg/kg/injection, schedule: Q01DX009 (ip), vehicle: saline with Tween-80)?
Its T/C is 108 % of control.

Which T/C (dose: 60.0 mg/kg/injection, schedule: Q01DX005 (ip), vehicle: saline with Tween-80) does the source give for CCCCCCCCN1CCOCCOCCN(CCCCCCCC)c2nc(Cl)nc(n2)NCCOCCOCCNc2nc(Cl)nc1n2 here?
Its T/C is 98 % of control.

And the T/C (dose: 120.0 mg/kg/injection, schedule: Q01DX005 (ip), vehicle: saline with Tween-80)?
The T/C was 93 % of control.

Which T/C (dose: 100.0 mg/kg/injection, schedule: Q01DX009 (ip), vehicle: Klucel (hydroxypropylcellulose) (HPC)) does the source give for O=c1oc(-c2ccc(Cl)c([N+](=O)[O-])c2)ns1 here?
The T/C was 107 % of control.

What about the T/C (dose: 200.0 mg/kg/injection, schedule: Q01DX009 (ip), vehicle: Klucel (hydroxypropylcellulose) (HPC)) of the same molecule?
Its T/C is 113 % of control.

Which T/C (dose: 12.5 mg/kg/injection, schedule: Q01DX005 (ip), vehicle: saline with Tween-80) does the source give for Cc1c2c(cc3c1[nH]c1ccccc13)C(=O)c1ccccc1C2=O here?
Its T/C is 94 % of control.

What about the T/C (dose: 25.0 mg/kg/injection, schedule: Q01DX005 (ip), vehicle: saline with Tween-80) of the same molecule?
Its T/C is 95 % of control.

And the T/C [2]?
The T/C was 92 % of control and 94 % of control.

And the T/C [3]?
The T/C was 87 % of control.

O=C(NC(CCS(=O)(=O)NCCCl)C(=O)OCc1ccccc1)OCc1ccccc1 (stereo not given) was tested. Which T/C (dose: 12.5 mg/kg/injection, schedule: Q01DX009 (ip), vehicle: other) did it give?
The T/C was 104 % of control.

What about the T/C (dose: 25.0 mg/kg/injection, schedule: Q01DX009 (ip), vehicle: other) of the same molecule?
The T/C was 90 % of control.

And the T/C (dose: 50.0 mg/kg/injection, schedule: Q01DX009 (ip), vehicle: other)?
Its T/C is 105 % of control.

What about the T/C (dose: 100.0 mg/kg/injection, schedule: Q01DX009 (ip), vehicle: other) of the same molecule?
The T/C was 103 % of control.

And the T/C (dose: 200.0 mg/kg/injection, schedule: Q01DX009 (ip), vehicle: other)?
Its T/C is 91 % of control.

How did the T/C (dose: 12.5 mg/kg/injection, schedule: Q01DX009 (ip), vehicle: water) turn out when Cc1cc(C)[s+]s1 was run?
The T/C was 109 % of control.

What about the T/C (dose: 25.0 mg/kg/injection, schedule: Q01DX009 (ip), vehicle: water) of the same molecule?
The T/C was 109 % of control.

And the T/C (dose: 50.0 mg/kg/injection, schedule: Q01DX009 (ip), vehicle: water)?
Its T/C is 115 % of control.

What about the T/C (dose: 100.0 mg/kg/injection, schedule: Q01DX009 (ip), vehicle: water) of the same molecule?
Its T/C is 117 % of control.

With CC1=CC2OC3C(OC(=O)CCCCl)C(OC(=O)CCCCl)C(C)(C2(CO)CC1)C31CO1 (stereo not given) as the molecule, how does the T/C (dose: 4.0 mg/kg/injection, schedule: Q01DX009 (ip), vehicle: saline with Tween-80) read?
Its T/C is 152 % of control.

And the T/C (dose: 8.0 mg/kg/injection, schedule: Q01DX009 (ip), vehicle: saline with Tween-80)?
The T/C was 172 % of control.

C[N+](C)(C)CC(C[N+](C)(C)C)C(=O)c1ccccc1 was tested. Which T/C [9] did it give?
The T/C was 107 % of control.

What about the T/C [10] of the same molecule?
The T/C was 108 % of control.

Clc1nc(Cl)nc(Nc2ccccc2Cl)n1 was tested. Which T/C [9] did it give?
The T/C was 96 % of control.

And the T/C [10]?
Its T/C is 99 % of control.

What about the T/C (dose: 25.0 mg/kg/injection, schedule: Q01DX009 (ip), vehicle: Klucel (hydroxypropylcellulose) (HPC)) of the same molecule?
Its T/C is 96 % of control.

And the T/C (dose: 50.0 mg/kg/injection, schedule: Q01DX009 (ip), vehicle: Klucel (hydroxypropylcellulose) (HPC))?
Its T/C is 99 % of control.

What does the source list for NCCc1cc(O)c(O)cc1O?
T/C (dose: 6.25 mg/kg/injection, schedule: Q01DX009 (ip), vehicle: saline): 101 % of control and 105 % of control; T/C (dose: 12.5 mg/kg/injection, schedule: Q01DX009 (ip), vehicle: saline): 107 % of control and 97 % of control; T/C [4]: 101 % of control and 109 % of control; T/C [1]: 100 % of control and 111 % of control
